Assays:
[1] = organism: Homo sapiens; assay: Selectivity for cathepsin S over cathepsin B
[2] = organism: Homo sapiens; assay: Selectivity for cathepsin S over cathepsin K
[3] = organism: Homo sapiens; assay: Selectivity for cathepsin S over cathepsin L

- Activity [1]: > 1000
- Activity [2]: > 100
- Activity [3]: > 1000
Structure (SMILES): CC(C)Cc1ccc(-c2ccccc2OCC=O)c(F)c1F

Reference: ChEMBL document CHEMBL1143066, “Characterization and optimization of selective, nonpeptidic inhibitors of cathepsin S with an unprecedented binding mode” (J Med Chem, 2007)
